Laboratory results reported in US8569501B2, “Semiconductor materials and methods of preparation and use thereof” (BASF SE, priority 2008, dated 2013).
≈ marks a conversion by molar mass, not a printed value.

Assay: Solubility in organic solvents
Assay type: physicochemical
Details: in dichlorobenzene at 60° C.
From the text: All of the mono-bromo mono-cyano perylenes and dimeric perylenes are sufficiently soluble for processing in conventional organic solvents such as chloroform, xylene, dichlorobenzene, and anisole.

Row | SMILES | Solubility [mg/mL]
1 | CCCCC(C)N1C(=O)c2ccc3c4c(-c5ccc(-c6ccc(-c7cc8c9c(ccc%10c%11c(C#N)cc%12c%13c(ccc(c7c9%10)c%13%11)C(=O)N(C(C)CCCC)C%12=O)C(=O)N(C(C)CCCC)C8=O)s6)s5)cc5c6c(ccc(c7c(C#N)cc(c2c37)C1=O)c64)C(=O)N(C(C)CCCC)C5=O (stereo not drawn) [BPDI(1MP)-BT, 5,5′-bis-[N,N′-bis(1-methylpentyl)-1-cyanoperylene-3,4:9,10-bis(dicarboxiimide)-7-yl]-2,2′-bithiophene] | 33.9 (≈ 25.5 mM)
2 | CCCCC(CC)CN1C(=O)c2ccc3c4c(-c5ccc(-c6ccc(-c7cc8c9c(ccc%10c%11c(C#N)cc%12c%13c(ccc(c7c9%10)c%13%11)C(=O)N(CC(CC)CCCC)C%12=O)C(=O)N(CC(CC)CCCC)C8=O)s6)s5)cc5c6c(ccc(c7c(C#N)cc(c2c37)C1=O)c64)C(=O)N(CC(CC)CCCC)C5=O (stereo not drawn) [BPDI(2EH)-BT, 5,5′-bis-[N,N′-bis(2-ethylhexyl)-1-cyanoperylene-3,4:9,10-bis(dicarboxiimide)-7-yl]-2,2′-bithiophene] | 5.5 (≈ 3.81 mM)
3 | CCCCCCCCN1C(=O)c2ccc3c4c(-c5ccc(-c6ccc(-c7cc8c9c(ccc%10c%11c(C#N)cc%12c%13c(ccc(c7c9%10)c%13%11)C(=O)N(CCCCCCCC)C%12=O)C(=O)N(CCCCCCCC)C8=O)s6)s5)cc5c6c(ccc(c7c(C#N)cc(c2c37)C1=O)c64)C(=O)N(CCCCCCCC)C5=O [BPDI(8)-BT, 5,5′-bis-[N,N′-bisoctyl-1-cyanoperylene-3,4:9,10-bis(dicarboxiimide)-7-yl]-2,2′-bithiophene] | 7.8 (≈ 5.41 mM)
